PubChem BioAssay AID330 (DTP/NCI, 2004)
“And” between values parts separate entries of the source, which are not always exact repeats. Identical values can stand only once. Toxic doses and inconclusive results are not listed. How the source made its calls: active means survival T/C of 150% or more; inactive means T/C below 125% in these data.

Tested on: P388 leukemia ip, CD2F1 mice, survival T/C
Experiment: NCI In Vivo Anticancer Drug Screen. Data for tumor model P388 Leukemia (intraperitoneal) in CD2F1 (CDF1) mice
Conditions: endpoint: median survival time, higher = longer survival
Method in brief: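 Mice carrying the transplanted tumor received test compound or vehicle. Survival was recorded in each group, and the value is the treated-group measurement divided by that of the vehicle-treated control group.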

[1] = dose: 50.0 mg/kg/injection, schedule: Q01DX009 (ip), vehicle: Klucel (hydroxypropylcellulose) (HPC)
[2] = dose: 100.0 mg/kg/injection, schedule: Q01DX009 (ip), vehicle: Klucel (hydroxypropylcellulose) (HPC)
[3] = dose: 200.0 mg/kg/injection, schedule: Q01DX009 (ip), vehicle: Klucel (hydroxypropylcellulose) (HPC)
[4] = dose: 50.0 mg/kg/injection, schedule: Q01DX009 (ip), vehicle: saline
[5] = dose: 100.0 mg/kg/injection, schedule: Q01DX009 (ip), vehicle: saline
[6] = dose: 50.0 mg/kg/injection, schedule: Q01DX001 (ip), vehicle: Klucel (hydroxypropylcellulose) (HPC)
[7] = dose: 25.0 mg/kg/injection, schedule: Q01DX005 (ip), vehicle: Klucel (hydroxypropylcellulose) (HPC)
[8] = dose: 50.0 mg/kg/injection, schedule: Q01DX005 (ip), vehicle: Klucel (hydroxypropylcellulose) (HPC)
[9] = dose: 100.0 mg/kg/injection, schedule: Q01DX005 (ip), vehicle: Klucel (hydroxypropylcellulose) (HPC)
[10] = dose: 50.0 mg/kg/injection, schedule: Q01DX005 (ip), vehicle: saline

Measured: T/C

CNC(=S)/C(C(C)=O)=C(\C)Nc1ccccc1
inactive: [1] 101 % of control | [2] 106 % of control | [3] 106 % of control

ClCC1CCNCC1
inactive: [4] 100 % of control | [5] 100 % of control | dose: 200.0 mg/kg/injection, schedule: Q01DX009 (ip), vehicle: saline 99 % of control

Cc1nn(-c2ccccc2)c2c1C(c1ccc(Cl)cc1)C(C#N)=C(N)O2 (centres undefined)
inactive: [1] 94 % of control | [2] 96 % of control

Nc1c2cc3c(cc2c[n+]2ccc4ccccc4c12)OCO3
inactive: dose: 6.25 mg/kg/injection, schedule: Q04DX003 (ip), vehicle: distilled water + Tween-80 111 % of control and 113 % of control and 115 % of control | dose: 12.5 mg/kg/injection, schedule: Q04DX003 (ip), vehicle: distilled water + Tween-80 113 % of control and 116 % of control and 120 % of control | dose: 25.0 mg/kg/injection, schedule: Q04DX003 (ip), vehicle: distilled water + Tween-80 111 % of control (2×) and 123 % of control

COC(=O)[C@@H]1[C@@H]2O[C@@H]2[C@H]2O[C@H]2[C@H]1C(=O)O
inactive: dose: 6.25 mg/kg/injection, schedule: Q01DX001 (ip), vehicle: Klucel (hydroxypropylcellulose) (HPC) 113 % of control | dose: 12.5 mg/kg/injection, schedule: Q01DX001 (ip), vehicle: Klucel (hydroxypropylcellulose) (HPC) 103 % of control | dose: 25.0 mg/kg/injection, schedule: Q01DX001 (ip), vehicle: Klucel (hydroxypropylcellulose) (HPC) 100 % of control | [6] 99 % of control

COC(=O)C(C)NC(=O)C(CCSC)NC(=O)OC(C)(C)C (centres undefined)
inactive: [7] 98 % of control | [8] 100 % of control and 102 % of control | [9] 95 % of control | dose: 200.0 mg/kg/injection, schedule: Q01DX005 (ip), vehicle: Klucel (hydroxypropylcellulose) (HPC) 104 % of control

O=C1/C(=N/O)Cc2ccccc21
inactive: dose: 12.5 mg/kg/injection, schedule: Q04DX003 (ip), vehicle: saline with Tween-80 100 % of control | dose: 25.0 mg/kg/injection, schedule: Q04DX003 (ip), vehicle: saline with Tween-80 100 % of control | dose: 50.0 mg/kg/injection, schedule: Q04DX003 (ip), vehicle: saline with Tween-80 100 % of control

NCCNCC[OH2+].NCCNCC[OH2+].O=[N+]([O-])[O-].[Ni+2]
inactive: dose: 12.5 mg/kg/injection, schedule: Q01DX009 (ip), vehicle: saline 93 % of control | dose: 25.0 mg/kg/injection, schedule: Q01DX009 (ip), vehicle: saline 102 % of control

COc1ccc(Cl)cc1NC(=O)c1ccccc1F
inactive: [1] 120 % of control | [2] 104 % of control | [3] 118 % of control

O=C1C=CC(=Nc2cc(Cl)c(O)c(Cl)c2)C=C1Cl
inactive: dose: 12.5 mg/kg/injection, schedule: Q01DX005 (ip), vehicle: saline 96 % of control | dose: 25.0 mg/kg/injection, schedule: Q01DX005 (ip), vehicle: saline 100 % of control | [10] 93 % of control

Nc1nnnn1-c1ccccc1Cl
inactive: dose: 100.0 mg/kg/injection, schedule: Q04DX003 (ip), vehicle: Klucel (hydroxypropylcellulose) (HPC) 105 % of control | dose: 200.0 mg/kg/injection, schedule: Q04DX003 (ip), vehicle: Klucel (hydroxypropylcellulose) (HPC) 100 % of control | dose: 400.0 mg/kg/injection, schedule: Q04DX003 (ip), vehicle: Klucel (hydroxypropylcellulose) (HPC) 101 % of control

CCn1c(N)c(C(=S)NC)c(=O)n(CC)c1=O
inactive: [4] 100 % of control | [5] 96 % of control

CC(C)=CCCC(C)(OC1OC(CO)C(O)C(O)C1O)C1CCC2(C)C1C(O)CC1C3(C)CCC(O)C(C)(C)C3C(OC3OC(CO)C(O)C(O)C3OC3OC(C)C(O)C(O)C3O)CC12C (centres undefined)
inactive: dose: 2.0 mg/kg/injection, schedule: Q01DX009 (ip), vehicle: Klucel (hydroxypropylcellulose) (HPC) 88 % of control | dose: 4.0 mg/kg/injection, schedule: Q01DX009 (ip), vehicle: Klucel (hydroxypropylcellulose) (HPC) 92 % of control | dose: 8.0 mg/kg/injection, schedule: Q01DX009 (ip), vehicle: Klucel (hydroxypropylcellulose) (HPC) 92 % of control | dose: 16.0 mg/kg/injection, schedule: Q01DX009 (ip), vehicle: Klucel (hydroxypropylcellulose) (HPC) 95 % of control | dose: 25.0 mg/kg/injection, schedule: Q01DX009 (ip), vehicle: Klucel (hydroxypropylcellulose) (HPC) 98 % of control | dose: 32.0 mg/kg/injection, schedule: Q01DX009 (ip), vehicle: Klucel (hydroxypropylcellulose) (HPC) 88 % of control | [1] 100 % of control | [2] 100 % of control | [3] 98 % of control

CCc1cccc(C)c1NC(=O)CCc1nnc(N)n1N
inactive: dose: 50.0 mg/kg/injection, schedule: Q01DX005 (ip), vehicle: saline with Tween-80 104 % of control | dose: 100.0 mg/kg/injection, schedule: Q01DX005 (ip), vehicle: saline with Tween-80 107 % of control | dose: 200.0 mg/kg/injection, schedule: Q01DX005 (ip), vehicle: saline with Tween-80 94 % of control

O=C1c2c(O)ccc(Cl)c2C(=O)C2CC=CCC12 (centres undefined)
inactive: dose: 50.0 mg/kg/injection, schedule: Q04DX003 (ip), vehicle: DMSO 94 % of control | dose: 100.0 mg/kg/injection, schedule: Q04DX003 (ip), vehicle: DMSO 88 % of control | dose: 200.0 mg/kg/injection, schedule: Q04DX003 (ip), vehicle: DMSO 87 % of control

COc1ccc2ccc3c(c2c1)C(=O)CC3
inactive: dose: 12.5 mg/kg/injection, schedule: Q01DX009 (ip), vehicle: distilled water + Tween-80 101 % of control | dose: 25.0 mg/kg/injection, schedule: Q01DX009 (ip), vehicle: distilled water + Tween-80 98 % of control | dose: 50.0 mg/kg/injection, schedule: Q01DX009 (ip), vehicle: distilled water + Tween-80 107 % of control | dose: 100.0 mg/kg/injection, schedule: Q01DX009 (ip), vehicle: distilled water + Tween-80 98 % of control | dose: 200.0 mg/kg/injection, schedule: Q01DX009 (ip), vehicle: distilled water + Tween-80 98 % of control

CC1=CC=CN2CCC(=O)N=C12
inactive: [10] 113 % of control | dose: 100.0 mg/kg/injection, schedule: Q01DX005 (ip), vehicle: saline 101 % of control | dose: 200.0 mg/kg/injection, schedule: Q01DX005 (ip), vehicle: saline 101 % of control

COc1cccc2c1C(=O)c1c(O)c3c(c(O)c1C2=O)[C@@H](OC)[C@@](O)(C(C)=O)C[C@@H]3OC1CC(N)C(O)C(C)O1 (some centres undefined)
inactive: dose: 3.13 mg/kg/injection, schedule: Q04DX003 (ip), vehicle: saline 110 % of control | dose: 6.25 mg/kg/injection, schedule: Q04DX003 (ip), vehicle: saline 115 % of control

CC(=O)N(C(C)=O)N1C(=O)C2C3C=CC(C4CC34)C2C1=O (centres undefined)
inactive: [1] 92 % of control | [2] 94 % of control

C/C(=N\NC(=S)N1CCC(c2ccccc2)CC1)c1ccccn1
inactive: dose: 100.0 mg/kg/injection, schedule: Q04DX003 (ip), vehicle: saline 100 % of control | dose: 200.0 mg/kg/injection, schedule: Q04DX003 (ip), vehicle: saline 101 % of control

COC(=O)c1ccc(OCCC(=O)CCl)cc1
inactive: [1] 102 % of control | [2] 106 % of control

CCOC(=O)c1ccc(NC(=O)c2ccccc2)cc1
inactive: [6] 96 % of control | dose: 100.0 mg/kg/injection, schedule: Q01DX001 (ip), vehicle: Klucel (hydroxypropylcellulose) (HPC) 90 % of control | dose: 200.0 mg/kg/injection, schedule: Q01DX001 (ip), vehicle: Klucel (hydroxypropylcellulose) (HPC) 92 % of control | dose: 400.0 mg/kg/injection, schedule: Q01DX001 (ip), vehicle: Klucel (hydroxypropylcellulose) (HPC) 95 % of control

CC1(C)OC(=O)ON(C(c2ccccc2)c2ccccc2)C1=O
inactive: dose: 60.0 mg/kg/injection, schedule: Q01DX005 (ip), vehicle: saline with Tween-80 101 % of control | dose: 120.0 mg/kg/injection, schedule: Q01DX005 (ip), vehicle: saline with Tween-80 108 % of control

Cc1nc(N)[nH]c(=O)c1N
inactive: dose: 12.5 mg/kg/injection, schedule: Q01DX005 (ip), vehicle: Klucel (hydroxypropylcellulose) (HPC) 99 % of control | [7] 108 % of control | [8] 103 % of control and 98 % of control | [9] 110 % of control

CSC(=S)c1ccc(O)c2ccccc12
inactive: dose: 50.0 mg/kg/injection, schedule: Q01DX009 (ip), vehicle: saline with Tween-80 114 % of control | dose: 100.0 mg/kg/injection, schedule: Q01DX009 (ip), vehicle: saline with Tween-80 114 % of control | dose: 200.0 mg/kg/injection, schedule: Q01DX009 (ip), vehicle: saline with Tween-80 105 % of control
